Test results taken from patent publication US8809372B2, “Pyridine derivatives” (Endo Pharmaceuticals, Inc., priority 2011, dated 2014).
Where two headings read alike, the source gives them in different places.

Columns and labels:
[1] = tested on: serum testosterone level; experiment: In vivo inhibition of testosterone production; set-up: species or system rat; conditions: male rats, vs vehicle-dosed controls
Protocol: In vivo Inhibition of Testosterone Production
Male rats aged 8 to 10 weeks old were dosed orally with compounds at 10 or 30 mg/kg. Blood samples were drawn at 0.5, 3, 8, and 24 hours and were processed to plasma samples. Samples were analyzed for compound levels by LC-MS/MS method and for testosterone levels with an ELISA performed as per manufacturer's protocol (Parameter Testosterone Assay, Cat. No. KGE010, R&D systems; http://www.mdsystems.com/pdf/KGE010.pdf). The serum testosterone level was calculated from standards using GraphPad® Prism software and % inhibition at a given time was calculated by comparing the testosterone level in vehicle control animals at the same time of day.

[2] = tested on: testosterone production in H295R cells; experiment: Cell-based functional assay for testosterone production; set-up: species or system human
Protocol: Cell-Based Functional Assay for Testosterone Production
H295R cells (ATCC Number CRL-2128) were subcultured, seeded (30,000 cells per well in a poly-d lysine plate) and left overnight at 37° C. The next day (after approximately 24 hours), the media were removed and 200 μL fresh media were added. Then, 50 μL of serially diluted compounds was added from a 5× plate. The serial dilution in the 100× plate (in DMSO) and the stamping of a 5× plate (in media) from the 100× plate were carried out using a TECAN liquid handling device. The plate was incubated at 37° C. for 72 hours. After incubation, the media was removed, diluted 5 to 10 times with calibration diluent RD5-48, and the assay performed as per manufacturer's protocol (Parameter Testosterone Assay, Cat. No. KGE010, R&D systems; http://www.mdsystems.com/pdf/KGE010.pdf).

[3] = tested on: prostate and seminal vesicle weights; experiment: In vivo reduction of prostate and seminal vesicle weights; set-up: species or system rat; conditions: male rats
Protocol: In vivo Reduction of Prostate and Seminal Vesicle Weights Male rats aged 8 to 10 weeks old (5 animals per group) were dosed orally with compounds once or twice a day at 12-hour intervals for 14 days. On day 14 the animals were euthanized and organs were surgically removed for wet weight determination including the prostate, seminal vesicles and testes.

[4] = biological target: T1, human CYP17 in LNCap-CYP17 cells (Homo sapiens, UniProt P05093); experiment: Cell-based human CYP17 inhibition assay, LNCap-CYP17 cells; conditions: 16 hours
T1 construct: expressed in transfected cells
T1 sequence (P05093 1-508): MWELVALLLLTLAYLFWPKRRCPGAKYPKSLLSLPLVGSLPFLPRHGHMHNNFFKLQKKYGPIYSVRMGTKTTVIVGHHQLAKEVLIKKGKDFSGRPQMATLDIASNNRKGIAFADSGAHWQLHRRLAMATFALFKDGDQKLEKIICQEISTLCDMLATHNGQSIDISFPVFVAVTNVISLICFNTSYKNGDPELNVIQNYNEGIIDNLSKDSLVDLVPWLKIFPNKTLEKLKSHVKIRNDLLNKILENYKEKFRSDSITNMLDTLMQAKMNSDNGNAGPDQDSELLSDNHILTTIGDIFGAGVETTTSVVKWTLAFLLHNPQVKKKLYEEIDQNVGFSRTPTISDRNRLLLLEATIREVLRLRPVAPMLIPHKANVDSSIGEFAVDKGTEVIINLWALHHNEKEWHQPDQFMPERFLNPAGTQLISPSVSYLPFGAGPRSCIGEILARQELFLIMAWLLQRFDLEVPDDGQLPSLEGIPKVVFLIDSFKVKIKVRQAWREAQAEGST
Protocol: Cell-Based Human CYP17 Inhibition Assay
1. H295R Adrenocortical Carcinoma Cells and Growth Media: The media for the H295R Adrenocortical carcinoma cells [NCI-H295A, ATCC Number CRL-2128, American Type Culture Collection, Manassas, Va., US] (500 mL) was a DMEM:F12 Mix 1:1 with 5% (2 mL) BD Nu Serum; 1% (5 mL) ITS+Premix [BD Biosciences] and 1% Penstrep. 2. LNCap-CYP17 Cells and Growth Media: Full length hCYP17a1 gene (NCBI Reference Sequence: NM_000102.3) was cloned in pcDNA3.1(+) vector between HindIII and XhoI site. The pcDNA3.1(+) vector contains the Neomycin resistance gene and was used for selection of stable cell line. The hCYP17a1 containing pcDNA3.1(+) was transfected into LNCap cells to create the LNCap-CYP17 cell line. The media for the LNCaP-CYP17 cells was RPMI 1640, 10% FBS, 1% PenStrep, Geneticin 400 μg/mL.
The H295R cells or LNCaP-hCYP17 cells were subcultured and 30,000 cells per well were seeded in a poly-d lysine plate and incubated overnight at 37° C. The next day the media was removed and 200 μL of fresh media with ^3H3-17α-hydroxy-pregnenolone (1:1000) was added. 50 μL of serially diluted compounds from a 5× plate (5 times the final desired concentration) was added. […]
The plates were incubated overnight (16 hours) at 37° C. […] Following the incubation for 30 minutes, readings for the radiotracer were taken using a Microbeta® trilux.

[5] = 3-8 hours after a 30 mg/kg oral dose
[6] = Homo sapiens, NCI-H295R, 72 h, read-out: Testosterone (human H295R adrenal cells), H295R cells, 72 hours
[7] = read-out: Testosterone (human H295R adrenal cells), H295R cells, 72 hours
[8] = 30 mg/kg orally once a day for 14 days
[9] = Homo sapiens, NCI-H295R, 72 h, read-out: Testosterone (human H295R adrenal cells)
[10] = 30 mg/kg orally twice a day for 14 days

CC(O)(c1ccncc1)c1ncc(-c2ccc(F)cc2)s1 (centres unmarked) [Example 14, 1-(5-(4-Fluorophenyl)thiazol-2-yl)-1-(pyridin-4-yl)ethanol]
decrease of serum testosterone levels [1, 5]: 60-80%

CC(O)(c1ccncc1)c1cnc(-c2ccc(F)cc2)s1 (single isomer, unassigned) [Example 8, 1-(2-(4-fluorophenyl)thiazol-5-yl)-1-(pyridin-4-yl)ethanol]
IC50 [2, 6]: 50 to 200 nM

CC(O)(c1ccncc1)c1cnc(-c2ccc(F)cc2)s1 (single isomer, unassigned) [Example 9, 1-(2-(4-fluorophenyl)thiazol-5-yl)-1-(pyridin-4-yl)ethanol]
IC50 [2, 7]: < 50 nM

CCC(O)(c1ccncc1)c1cnc(-c2ccc(F)cc2)s1 (centres unmarked) [Example 4, 1-(2-(4-fluorophenyl)-thiazol-5-yl)-1-(pyridin-4-yl)propan-1-ol]
IC50 [2, 6]: < 50 nM

CC(O)(c1ccncc1)c1cnc(-c2ccc(F)cc2)s1 (racemic) [Example 7, 1-(2-(4-Fluorophenyl)thiazol-5-yl)-1-(pyridin-4-yl)ethanol]
reduction of prostate weight [3, 8]: about 50% | reduction of seminal vesicle weight [3, 8]: about 60% | IC50 [2, 9]: < 50 nM | melting point: 229 to 232 °C | decrease of serum testosterone levels ([1]; 3-8 hours after a 10 mg/kg oral dose): 70-85%

COc1ccc(-c2ccc(C(C)(O)c3ccncc3)nc2)cc1 (single isomer, unassigned) [Example 3, 1-(5-(4-methoxyphenyl)-pyridin-2-yl)-1-(pyridin-4-yl)ethanol]
IC50 [2, 6]: 50 to 200 nM

COc1ccc(-c2ccc(C(C)(O)c3ccncc3)nc2)cc1 (single isomer, unassigned) [Example 2, 1-(5-(4-methoxyphenyl)-pyridin-2-yl)-1-(pyridin-4-yl)ethanol]
IC50 [2, 7]: 50 to 200 nM

CC(O)(c1ccncc1)c1nc(-c2ccc(F)cc2)no1 (centres unmarked) [Example 34, 1-(3-(4-Fluorophenyl)-1,2,4-oxadiazol-5-yl)-1-(pyridin-4-yl)ethanol]
reduction of prostate weight [3, 10]: about 50%

CC(O)(c1ccncc1)c1nc(-c2ccc(F)cc2)no1 (single isomer, unassigned; (+)) [Example 36, (+)-1-(3-(4-fluoro-phenyl)-1,2,4-oxadiazol-5-yl)-1-(pyridin-4-yl)ethanol]
reduction of prostate weight [3, 10]: about 50%

Cn1cc(-c2ccc(C(C)(O)c3ccncc3)s2)ccc1=O (single isomer, unassigned; (-)) [Example 17, (−)-5-(5-(1-hydroxy-1-(pyridin-4-yl)ethyl)thiophen-2-yl)-1-methylpyridin-2(1H)-one]
reduction of prostate weight [3, 10]: about 50% | decrease of serum testosterone levels [1, 5]: 30-60%

COc1ccc(-c2ccc(C(C)(O)c3ccncc3)nc2)cc1 (racemic) [Example 1, 1-(5-(4-Methoxyphenyl)pyridin-2-yl)-1-(pyridin-4-yl)ethanol]
IC50 [2, 9]: 50 to 200 nM | IC50 [4]: 201 to 10000 nM
